Source: ChEMBL document CHEMBL5620390, “A novel multifunctional mitochondrion-targeting NIR fluorophore probe inhibits tumour proliferation and metastasis through the PPARγ/ROS/β-catenin pathway” (Eur J Med Chem, 2023)
Activity calls are given as the source filed them. No cut-off for these calls is given here.

Columns and labels:
B16-F10 [1] = assay: Antitumor activity against mouse B16-F10 cells inoculated in C57BL/6J mouse assessed as reduction in tumor growth at 0.5 to 2 mg/kg, ip administered every other day and measured on day 22; type: functional, organism-based; settings: dose 0.5-2 mg/kg, time 22.0 day
B16-F10 [2] = assay: Antitumor activity against mouse B16-F10 cells inoculated in C57BL/6J mouse assessed as reduction in Ki-67 expression at 0.5 to 2 mg/kg, ip administered every other day and measured on day 22 by immunohistochemistry analysis; type: functional, organism-based; settings: dose 0.5-2 mg/kg, time 22.0 day
A-375 [3] = assay: Inhibition of Wnt/beta-catenin signaling in human A-375 cells assessed as reduction in TCF4 expression at 1.25 uM preincubated with rosiglitazone for 24 hrs followed by compound addition and measured after 24 hrs in presence of H2O2; type: cell-based
A-375 [4] = assay: Induction of cell cycle arrest in human A-375 cells assessed as P27 protein accumulation at 0.31 to 1.25 uM after 24 hrs by Western blotting analysis; type: functional, cell-based; settings: dose 0.31-1.25 µM
B16-F10 [5] = assay: Antitumor activity against mouse B16-F10 cells inoculated in mouse assessed as reduction in spleen metastasis at 2 mg/kg, ip administered every other day and measured on day 18 by H and E staining based assay; type: functional, organism-based; settings: time 18.0 day
B16-F10 [6] = assay: Antitumor activity against mouse B16-F10 cells inoculated in C57BL/6J mouse assessed as reduction in tumor weight at 0.5 to 2 mg/kg, ip administered every other day and measured on day 22; type: functional, organism-based; settings: dose 0.5-2 mg/kg, time 22.0 day
A-375 [7] = assay: Antiproliferative activity against human A-375 cells assessed as inhibition of cell growth at 0.04 to 10 uM by MTT assay; type: functional, cell-based; settings: dose 0.04-10 µM, time 24-72 hrs, TDE = time-dependent effect
[8] = Drug uptake in mouse B16-F10 cells implanted in C57BL/6J mouse assessed as fluorescence aggregation in liver at 3 mg/kg, iv measured after 12 hrs; type: ADME, organism-based; settings: in vivo
A-375 [9] = assay: Induction of ROS generation in human A-375 cells assessed as reduction in SOD2 expression level at 1.25 uM preincubated with rosiglitazone for 24 hrs followed by compound addition for 24 hrs; type: functional, cell-based
B16-F10 [10] = assay: Inhibition of cell metastasis in mouse B16-F10 cells assessed as reduction in MMP9 protein level at 0.31 to 1.25 uM after 24 hrs by Western blotting analysis; type: functional, cell-based; settings: dose 0.31-1.25 µM
[11] = Drug uptake in human MDA-MB-231 cells assessed as fluorescence intensity at 2.5 uM incubated for 1 hr by confocal laser scanning microscopic analysis; type: ADME, cell-based; settings: mda-mb-231, 1 h
HeLa = assay: Antiproliferative activity against human HeLa cells assessed as inhibition of cell growth at 0.31 uM after 72 hrs by MTT assay; type: functional; parameters: scale not given: the % may be the effect or the level left
A-375 [12] = assay: Induction of ROS generation in human A-375 cells assessed as reduction in PPARgamma expression level at 1.25 uM preincubated with rosiglitazone for 24 hrs followed by compound addition for 24 hrs; type: functional, cell-based
B16-F10 [13] = assay: Induction of ROS generation in mouse B16-F10 cells assessed as reduction in PPARgamma expression level at 1.25 uM preincubated with rosiglitazone for 24 hrs followed by compound addition for 24 hrs; type: functional, cell-based
A549 = assay: Antiproliferative activity against human A549 cells assessed as inhibition of cell growth at 0.31 uM after 72 hrs by MTT assay; type: functional; parameters: scale not given: the % may be the effect or the level left
B16-F10 [14] = assay: Inhibition of colony formation in mouse B16-F10 cells at less than 0.63 uM by crystal violet staining based assay; type: functional, cell-based
B16-F10 [15] = assay: Inhibition of ROS generation in mouse B16-F10 cells preincubated with rosiglitazone for 2 hrs followed by wash out and compound addition for 1 hr by DCFH-DA staining based inverted fluorescence microscopic analysis; type: functional, cell-based
B16-F10 [16] = assay: Induction of cell cycle arrest in mouse B16-F10 cells assessed as reduction in Cdk4 protein level at 0.31 to 1.25 uM after 24 hrs by Western blotting analysis; type: functional, cell-based; settings: dose 0.31-1.25 µM
[17] = Drug uptake in human HeLa cells assessed as fluorescence intensity at 2.5 uM incubated for 1 hr by confocal laser scanning microscopic analysis; type: ADME, cell-based
B16-F10 [18] = assay: Induction of ROS generation in mouse B16-F10 cells assessed as reduction in SOD2 expression level at 1.25 uM preincubated with rosiglitazone for 24 hrs followed by compound addition for 24 hrs; type: functional, cell-based
[19] = Toxicity in C57BL/6J mouse inoculated with mouse B16-F10 cells assessed as effect on lung morphology at 2 mg/kg, ip administered every other day for 22 days by H and E staining based assay; type: organism-based; settings: in vivo, 528 h, time 22 day
A-375 [20] = assay: Inhibition of Wnt/beta-catenin signaling in human A-375 cells assessed as reduction in beta-catenin expression at 1.25 uM preincubated with rosiglitazone for 24 hrs followed by compound addition and measured after 24 hrs in presence of H2O2; type: cell-based
[21] = Renal toxicity in C57BL/6J mouse inoculated with mouse B16-F10 cells assessed as change in BUN level at 2 mg/kg, ip administered every other day for 22 days; type: organism-based; settings: in vivo, 528 h, time 22 day

Drug uptake [8]: Active | Drug uptake [11]: Active | Drug uptake [17]: Active
SMILES: CC[N+]1=C(/C=C/C2=C(Cl)C(=C/C=C3\N(CCCCCC(=O)O/C(=N/C4CCCCC4)NC4CCCCC4)c4ccccc4C3(C)C)/CCC2)C(C)(C)c2ccccc21.[Br-]
Activity (B16-F10 [1]): Active | Activity (B16-F10 [2]): Active | inhibition (A-375 [3]): inactive | Activity (A-375 [4]): Active | Activity (B16-F10 [5]): Active | Activity (B16-F10 [6]): Active | Activity (A-375 [7]): Tde | Activity (A-375 [9]): inactive | inhibition (B16-F10 [10]): Active | Activity (HeLa): 70% | Activity (A-375 [12]): inactive | Activity (B16-F10 [13]): inactive | Activity (A549): 70% | inhibition (B16-F10 [14]): Active | Activity (B16-F10 [15]): Dose-Dependent Effect | Activity (B16-F10 [16]): Active | Activity (B16-F10 [18]): inactive | Activity [19]: Non-Toxic | inhibition (A-375 [20]): inactive | Activity [21]: Non-Toxic
